# Measurements: ChEMBL document CHEMBL3044714, “Studies on fused heterocyclic 3,6-disubstituted-1,2,4-triazolo-1,3,4-thiadiazoles: synthesis and biological evaluation” (Med Chem Res, 2011)
# Key:
# Rattus norvegicus [1] = experiment: Induction of lipid peroxidation in fasted Rattus norvegicus Wistar (rat) assessed as malondialdehyde level per 100 mg gastric mucosal tissue at 60 mg/kg, po measured after 17 hr by thiobarbuteric acid method; format: organism-based, Gastric mucosa; design: dose 60 mg/kg, route oral; settings: in vivo
# Rattus norvegicus [2] = experiment: Anti-inflammatory activity in Rattus norvegicus Wistar (rat) assessed as inhibition of carrageenan-induced paw edema at 20 mg/kg, po administered 30 min prior to carrageenan-induced measured after 3 hr relative to control; format: functional
# Rattus norvegicus [3] = experiment: Anti-inflammatory activity in Rattus norvegicus Wistar (rat) assessed as inhibition of carrageenan-induced paw edema at 20 mg/kg, po administered 30 min prior to carrageenan-induced measured after 2 hr relative to control; format: functional
# Mus musculus = experiment: Analgesic activity in Mus musculus albino (mouse) assessed as protection against acetic acid-induced writhing at 25 mg/kg, ip administered 20 min prior to acetic acid-challenge measured for 20 min relative to control; format: functional; settings: route intraperitoneal
# Rattus norvegicus [4] = experiment: Ulcerogenic activity in fasted Rattus norvegicus Wistar (rat) assessed as ulcer index at 60 mg/kg, po measured after 17 hr; format: toxicity, organism-based; design: dose 60 mg/kg, route oral; settings: in vivo
SMILES,Activity (Rattus norvegicus [1]) [nmol],inhibition in vivo at 20 mg/kg (Rattus norvegicus [2]) [%],inhibition in vivo at 20 mg/kg (Rattus norvegicus [3]) [%],Activity (Mus musculus) [%],UI (Rattus norvegicus [4])
c1ccc(Cc2nnc3sc(-c4ccccc4Oc4ccccc4)nn23)cc1,3.26,56.3,41,30.43,0.91
O=C(NCc1nn2c(Cc3ccccc3)nnc2s1)c1ccccc1,,28,21.2,,
O=C(NCc1nn2c(COc3ccccc3)nnc2s1)c1ccccc1,,37.1,35.9,,
O=C(CCc1nn2c(COc3ccccc3)nnc2s1)c1ccccc1,3.95,70.9,56.5,65.58,1.16
c1ccc(OCc2nnc3sc(Cc4cccc5ccccc45)nn23)cc1,,24.6,18.5,,
c1ccc(Cc2nnc3sc(Cc4cc5ccccc5[nH]4)nn23)cc1,,41,36.7,,
c1ccc(OCc2nnc3sc(Cc4cc5ccccc5[nH]4)nn23)cc1,3.15,50.5,32.1,40.22,0.83
O=C(c1ccccc1)c1ccccc1-c1nn2c(COc3ccccc3)nnc2s1,4.42,63.3,54.8,43.48,1.25
O=C(NCc1nn2c(-c3ccccc3O)nnc2s1)c1ccccc1,,32.3,24.4,,
Oc1ccccc1-c1nnc2sc(Cc3cccc4ccccc34)nn12,,35,28,,
CC(=O)Oc1ccccc1C(=O)O [ASPIRIN],,,,61.96,
COc1ccc2c(c1)c(CC(=O)O)c(C)n2C(=O)c1ccc(Cl)cc1 [INDOMETHACIN],7.95,66.9,50.7,,2.25
